# Assay results from article PMC5078040 (Oncotarget, 2016).
# How the values were obtained:
# [1] = target: T1, PKN2 (Homo sapiens, UniProt Q16513); assay: KinomeScan; assay type: binding; settings: 1uM
# T1 construct: purchased DiscoveRx KINOMEscan
# [2] = target: T2, YSK1 (Homo sapiens, UniProt O00506); assay: KinomeScan; assay type: binding; settings: 1uM
# T2 construct: purchased DiscoveRx KINOMEscan
# [3] = target: PI3Kγ (Mus musculus, UniProt Q9JHG7); assay: cell-based
# [4] = target: T3, RPS6KA4(Kin.Dom.1-N-terminal) (Homo sapiens, UniProt O75676); assay: KinomeScan; assay type: binding; settings: 1uM
# T3 construct: RPS6KA4(Kin.Dom.1-N-terminal); purchased DiscoveRx KINOMEscan
# [5] = target: T4, RIOK1 (Homo sapiens, UniProt Q9BRS2); assay: KinomeScan; assay type: binding; settings: 1uM
# T4 construct: purchased DiscoveRx KINOMEscan
# [6] = target: T5, PFTK1 (Homo sapiens, UniProt O94921); assay: KinomeScan; assay type: binding; settings: 1uM
# T5 construct: purchased DiscoveRx KINOMEscan
# [7] = target: T6, CSNK1D (Homo sapiens, UniProt P48730); assay: KinomeScan; assay type: binding; settings: 1uM
# T6 construct: purchased DiscoveRx KINOMEscan
# [8] = target: T7, PDGFRB (Homo sapiens, UniProt P09619); assay: KinomeScan; assay type: binding; settings: 1uM
# T7 construct: purchased DiscoveRx KINOMEscan
# [9] = target: T8, LRRK2(G2019S) (Homo sapiens, UniProt Q5S007, G2019S); assay: KinomeScan; assay type: binding; settings: 1uM
# T8 construct: purchased DiscoveRx KINOMEscan
# [10] = target: T9, MTOR (Homo sapiens, UniProt P42345); assay: KinomeScan; assay type: binding; settings: 1uM
# T9 construct: purchased DiscoveRx KINOMEscan
# [11] = target: T10, ACVR2A (Homo sapiens, UniProt P27037); assay: KinomeScan; assay type: binding; settings: 1uM
# T10 construct: purchased DiscoveRx KINOMEscan
# [12] = target: T11, DDR2 (Homo sapiens, UniProt Q16832); assay: KinomeScan; assay type: binding; settings: 1uM
# T11 construct: purchased DiscoveRx KINOMEscan
# [13] = target: T12, QSK (Homo sapiens, UniProt Q9Y2K2); assay: KinomeScan; assay type: binding; settings: 1uM
# T12 construct: purchased DiscoveRx KINOMEscan
# [14] = target: T13, FLT3(N841I) (Homo sapiens, UniProt P36888, N841I); assay: KinomeScan; assay type: binding; settings: 1uM
# T13 construct: purchased DiscoveRx KINOMEscan
# [15] = tested on: AML patient primary cell; assay: Anti-proliferative efficacy against patient primary cells; assay type: cell-based; settings: Homo sapiens
# Description: Mononuclear cells were isolated from AML patients. Mononuclear cells were isolated by density gradient centrifugation through Ficoll-Plaque Plus (Amersham Pharmacia Biotech AB, Uppsala, Sweden) at 2000 rpm for 30 minutes, followed by two washes in 1X PBS. Freeze-thawed cells were then cultured in liquid culture (DMEM, supplemented with 20% FBS). All blood and bone marrow samples from AML patients were obtained through written consent under approval of the Dana Farber Cancer Institute Institutional Review Board. The ethics committees approved the consent procedure.
# (§1) Cells were grown in 96-well culture plates (3000-4000/well). […] Cell proliferation was determined after treatment with compounds for 72 hours. Cell viability was measured using the CellTiter–Glo Assay Kit (Promega, USA), according to the manufacturer's instructions, and luminescence was measured in a multi-label reader (Envision, PerkinElmer, USA). Data were normalized to control groups (DMSO) and represented by the mean of three independent measurements with standard error <20%. GI50 values were calculated using Prism 5.0 (GraphPad Software, San Diego, CA).
# [16] = target: T14, STK16 (Homo sapiens, UniProt O75716); assay: KinomeScan; assay type: binding; settings: 1uM
# T14 construct: purchased DiscoveRx KINOMEscan
# [17] = target: T15, AURKB (Homo sapiens, UniProt Q96GD4); assay: KinomeScan; assay type: binding; settings: 1uM
# T15 construct: purchased DiscoveRx KINOMEscan
# [18] = tested on: panel of cancer cell lines derived from B-cell malignancies; assay: Anti-proliferative assay (panel summary); assay type: cell-based; settings: Homo sapiens; most of the cell lines including AML, B-cell lymphoma and multiple myeloma cell lines
# Description: as §1
# [19] = target: T16, JNK2 (Homo sapiens, UniProt P45984); assay: KinomeScan; assay type: binding; settings: 1uM
# T16 construct: purchased DiscoveRx KINOMEscan
# [20] = target: T17, CSF1R (Homo sapiens, UniProt P07333); assay: KinomeScan; assay type: binding; settings: 1uM
# T17 construct: purchased DiscoveRx KINOMEscan
# [21] = target: T18, RSK2(Kin.Dom.2-C-terminal) (Homo sapiens, UniProt P51812); assay: KinomeScan; assay type: binding; settings: 1uM
# T18 construct: RSK2(Kin.Dom.2-C-terminal); purchased DiscoveRx KINOMEscan
# [22] = target: T19, ROCK1 (Homo sapiens, UniProt Q13464); assay: KinomeScan; assay type: binding; settings: 1uM
# T19 construct: purchased DiscoveRx KINOMEscan
# [23] = target: T20, ABL1-phosphorylated (Homo sapiens, UniProt P00519); assay: KinomeScan; assay type: binding; settings: 1uM
# T20 construct: purchased DiscoveRx KINOMEscan
# [24] = target: T21, YANK1 (Homo sapiens, UniProt Q8WU08); assay: KinomeScan; assay type: binding; settings: 1uM
# T21 construct: purchased DiscoveRx KINOMEscan
# [25] = target: T22, CDC2L2 (Homo sapiens, UniProt Q9UQ88); assay: KinomeScan; assay type: binding; settings: 1uM
# T22 construct: purchased DiscoveRx KINOMEscan
# [26] = target: T23, CAMK1 (Homo sapiens, UniProt Q14012); assay: KinomeScan; assay type: binding; settings: 1uM
# T23 construct: purchased DiscoveRx KINOMEscan
# [27] = target: T24, PLK3 (Homo sapiens, UniProt Q9H4B4); assay: KinomeScan; assay type: binding; settings: 1uM
# T24 construct: purchased DiscoveRx KINOMEscan
# [28] = target: T25, JAK1(JH1domain-catalytic) (Homo sapiens, UniProt P23458); assay: KinomeScan; assay type: binding; settings: 1uM
# T25 construct: JAK1(JH1domain-catalytic); purchased DiscoveRx KINOMEscan
# [29] = target: T26, ZAP70 (Homo sapiens, UniProt P43403); assay: KinomeScan; assay type: binding; settings: 1uM
# T26 construct: purchased DiscoveRx KINOMEscan
# [30] = tested on: phosphorylation of PRAS40 GSK3b and FOXO1; assay: Signaling pathway effect examination (western blotting); assay type: cell-based, human; settings: B-cell malignant cell lines
# Description: (§2) The cells were collected and lysed, and cell lysates were analyzed by western blotting.
# [31] = tested on: NF-kB P65 phosphorylation; assay: as above; assay type: cell-based, human; settings: any of the tested cell lines
# Description: as §2
# [32] = tested on: 4EBP1 phosphorylation; assay: as above; assay type: cell-based, human; settings: all of the cell lines
# Description: as §2
# [33] = target: T27, MST1 (Homo sapiens, UniProt Q13043); assay: KinomeScan; assay type: binding; settings: 1uM
# T27 construct: purchased DiscoveRx KINOMEscan
# [34] = target: T28, DYRK2 (Homo sapiens, UniProt Q92630); assay: KinomeScan; assay type: binding; settings: 1uM
# T28 construct: purchased DiscoveRx KINOMEscan
# T14 sequence (O75716 whole entry): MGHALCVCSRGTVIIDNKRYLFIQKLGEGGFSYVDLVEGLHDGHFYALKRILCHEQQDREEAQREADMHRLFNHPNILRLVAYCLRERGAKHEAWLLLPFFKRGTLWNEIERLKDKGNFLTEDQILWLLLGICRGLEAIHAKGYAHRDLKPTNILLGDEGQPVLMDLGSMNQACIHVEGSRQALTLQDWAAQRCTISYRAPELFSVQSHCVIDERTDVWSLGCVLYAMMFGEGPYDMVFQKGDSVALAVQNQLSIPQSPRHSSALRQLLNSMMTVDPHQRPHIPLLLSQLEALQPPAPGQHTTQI
# T3 sequence (O75676 1-371 limits assumed): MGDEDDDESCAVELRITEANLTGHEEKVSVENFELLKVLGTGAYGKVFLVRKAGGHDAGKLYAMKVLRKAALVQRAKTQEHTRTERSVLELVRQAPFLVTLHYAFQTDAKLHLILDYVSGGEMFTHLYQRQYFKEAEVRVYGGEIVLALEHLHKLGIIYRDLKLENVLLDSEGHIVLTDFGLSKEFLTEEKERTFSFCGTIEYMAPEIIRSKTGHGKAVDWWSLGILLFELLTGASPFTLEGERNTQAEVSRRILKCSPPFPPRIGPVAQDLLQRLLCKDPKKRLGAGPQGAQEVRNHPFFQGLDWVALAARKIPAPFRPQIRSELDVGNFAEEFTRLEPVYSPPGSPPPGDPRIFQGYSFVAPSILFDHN
# T19 sequence (Q13464 whole entry): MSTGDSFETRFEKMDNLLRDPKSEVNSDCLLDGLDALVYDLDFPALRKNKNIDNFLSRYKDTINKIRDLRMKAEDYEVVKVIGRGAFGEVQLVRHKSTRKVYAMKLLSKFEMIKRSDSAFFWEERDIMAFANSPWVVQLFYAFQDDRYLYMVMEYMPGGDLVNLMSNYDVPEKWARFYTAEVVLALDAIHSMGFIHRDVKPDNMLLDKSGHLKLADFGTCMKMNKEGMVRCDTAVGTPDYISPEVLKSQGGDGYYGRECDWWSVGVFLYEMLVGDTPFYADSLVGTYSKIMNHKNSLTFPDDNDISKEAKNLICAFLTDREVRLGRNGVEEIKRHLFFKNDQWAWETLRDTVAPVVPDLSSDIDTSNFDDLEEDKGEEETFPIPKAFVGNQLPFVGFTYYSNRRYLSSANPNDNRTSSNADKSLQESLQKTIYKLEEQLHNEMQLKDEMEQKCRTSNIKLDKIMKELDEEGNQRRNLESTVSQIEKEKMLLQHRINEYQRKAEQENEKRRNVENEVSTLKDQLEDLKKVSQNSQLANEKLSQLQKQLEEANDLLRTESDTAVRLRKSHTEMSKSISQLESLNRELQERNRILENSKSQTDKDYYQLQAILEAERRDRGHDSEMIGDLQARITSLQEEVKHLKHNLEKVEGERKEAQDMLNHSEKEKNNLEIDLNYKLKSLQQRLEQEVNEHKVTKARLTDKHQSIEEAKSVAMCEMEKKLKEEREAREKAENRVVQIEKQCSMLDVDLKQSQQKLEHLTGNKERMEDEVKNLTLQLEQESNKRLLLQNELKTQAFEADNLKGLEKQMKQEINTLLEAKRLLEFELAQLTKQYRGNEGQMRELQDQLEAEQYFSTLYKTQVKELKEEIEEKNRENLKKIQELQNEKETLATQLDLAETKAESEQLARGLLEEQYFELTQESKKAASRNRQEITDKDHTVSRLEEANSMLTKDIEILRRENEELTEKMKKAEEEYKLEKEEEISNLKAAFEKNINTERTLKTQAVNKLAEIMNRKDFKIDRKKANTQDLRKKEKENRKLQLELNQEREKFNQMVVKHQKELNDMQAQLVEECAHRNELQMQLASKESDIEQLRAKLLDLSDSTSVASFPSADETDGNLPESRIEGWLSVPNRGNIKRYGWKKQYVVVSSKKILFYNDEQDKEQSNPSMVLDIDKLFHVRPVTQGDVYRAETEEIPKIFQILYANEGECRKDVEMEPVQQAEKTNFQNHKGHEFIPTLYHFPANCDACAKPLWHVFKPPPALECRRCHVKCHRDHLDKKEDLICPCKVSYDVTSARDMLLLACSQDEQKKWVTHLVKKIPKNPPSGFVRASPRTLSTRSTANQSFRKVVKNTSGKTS
# T26 sequence (P43403 whole entry): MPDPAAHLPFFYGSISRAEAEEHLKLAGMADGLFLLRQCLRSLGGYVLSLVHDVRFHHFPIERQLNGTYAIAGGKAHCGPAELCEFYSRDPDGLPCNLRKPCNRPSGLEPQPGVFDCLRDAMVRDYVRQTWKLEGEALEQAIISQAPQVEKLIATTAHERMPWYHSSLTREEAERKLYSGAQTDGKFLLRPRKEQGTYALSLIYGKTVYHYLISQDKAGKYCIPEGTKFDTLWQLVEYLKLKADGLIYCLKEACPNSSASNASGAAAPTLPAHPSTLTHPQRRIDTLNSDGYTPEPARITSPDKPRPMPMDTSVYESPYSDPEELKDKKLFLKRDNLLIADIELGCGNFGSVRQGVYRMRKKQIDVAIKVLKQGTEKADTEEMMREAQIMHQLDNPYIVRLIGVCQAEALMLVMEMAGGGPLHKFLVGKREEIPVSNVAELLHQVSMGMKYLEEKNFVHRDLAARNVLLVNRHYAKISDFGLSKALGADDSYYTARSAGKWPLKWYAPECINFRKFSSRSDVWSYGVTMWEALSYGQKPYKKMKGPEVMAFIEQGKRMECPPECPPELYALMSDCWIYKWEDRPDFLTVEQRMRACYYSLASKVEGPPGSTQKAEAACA
# T23 sequence (Q14012 whole entry): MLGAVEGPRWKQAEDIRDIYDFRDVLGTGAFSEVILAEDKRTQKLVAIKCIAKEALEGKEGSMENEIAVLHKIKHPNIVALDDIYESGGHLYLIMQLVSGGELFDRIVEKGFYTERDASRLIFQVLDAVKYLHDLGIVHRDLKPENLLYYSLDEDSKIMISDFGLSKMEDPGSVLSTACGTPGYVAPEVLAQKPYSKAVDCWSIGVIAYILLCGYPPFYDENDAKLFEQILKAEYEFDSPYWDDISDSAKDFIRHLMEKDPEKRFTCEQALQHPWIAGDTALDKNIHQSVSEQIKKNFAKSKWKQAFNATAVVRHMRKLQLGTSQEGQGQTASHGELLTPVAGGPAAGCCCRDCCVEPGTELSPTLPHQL
# T25 sequence (P23458 854-1154 limits assumed): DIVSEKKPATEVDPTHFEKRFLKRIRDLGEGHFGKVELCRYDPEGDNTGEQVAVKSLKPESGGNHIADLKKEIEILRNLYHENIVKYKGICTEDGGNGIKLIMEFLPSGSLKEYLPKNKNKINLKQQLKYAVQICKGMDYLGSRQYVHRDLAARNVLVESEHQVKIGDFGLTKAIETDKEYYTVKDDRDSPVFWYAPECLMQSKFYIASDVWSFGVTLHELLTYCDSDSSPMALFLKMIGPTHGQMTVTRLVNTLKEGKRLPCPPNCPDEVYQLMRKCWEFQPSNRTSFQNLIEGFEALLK
# T27 sequence (Q13043 whole entry): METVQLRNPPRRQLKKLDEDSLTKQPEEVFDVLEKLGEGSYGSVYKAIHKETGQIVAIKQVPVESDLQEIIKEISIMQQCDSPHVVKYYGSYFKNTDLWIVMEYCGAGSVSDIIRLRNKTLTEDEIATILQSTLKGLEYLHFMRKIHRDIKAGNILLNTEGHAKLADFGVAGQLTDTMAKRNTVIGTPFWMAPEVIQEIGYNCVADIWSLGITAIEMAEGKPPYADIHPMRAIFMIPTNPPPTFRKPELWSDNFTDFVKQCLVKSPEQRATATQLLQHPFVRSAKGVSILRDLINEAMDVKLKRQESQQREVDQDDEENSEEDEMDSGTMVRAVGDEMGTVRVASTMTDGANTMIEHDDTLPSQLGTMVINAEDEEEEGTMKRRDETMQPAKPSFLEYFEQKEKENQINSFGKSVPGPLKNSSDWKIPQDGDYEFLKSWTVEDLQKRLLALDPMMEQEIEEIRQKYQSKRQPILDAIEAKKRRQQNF
# PI3Kγ, sequence (Q9JHG7 whole entry): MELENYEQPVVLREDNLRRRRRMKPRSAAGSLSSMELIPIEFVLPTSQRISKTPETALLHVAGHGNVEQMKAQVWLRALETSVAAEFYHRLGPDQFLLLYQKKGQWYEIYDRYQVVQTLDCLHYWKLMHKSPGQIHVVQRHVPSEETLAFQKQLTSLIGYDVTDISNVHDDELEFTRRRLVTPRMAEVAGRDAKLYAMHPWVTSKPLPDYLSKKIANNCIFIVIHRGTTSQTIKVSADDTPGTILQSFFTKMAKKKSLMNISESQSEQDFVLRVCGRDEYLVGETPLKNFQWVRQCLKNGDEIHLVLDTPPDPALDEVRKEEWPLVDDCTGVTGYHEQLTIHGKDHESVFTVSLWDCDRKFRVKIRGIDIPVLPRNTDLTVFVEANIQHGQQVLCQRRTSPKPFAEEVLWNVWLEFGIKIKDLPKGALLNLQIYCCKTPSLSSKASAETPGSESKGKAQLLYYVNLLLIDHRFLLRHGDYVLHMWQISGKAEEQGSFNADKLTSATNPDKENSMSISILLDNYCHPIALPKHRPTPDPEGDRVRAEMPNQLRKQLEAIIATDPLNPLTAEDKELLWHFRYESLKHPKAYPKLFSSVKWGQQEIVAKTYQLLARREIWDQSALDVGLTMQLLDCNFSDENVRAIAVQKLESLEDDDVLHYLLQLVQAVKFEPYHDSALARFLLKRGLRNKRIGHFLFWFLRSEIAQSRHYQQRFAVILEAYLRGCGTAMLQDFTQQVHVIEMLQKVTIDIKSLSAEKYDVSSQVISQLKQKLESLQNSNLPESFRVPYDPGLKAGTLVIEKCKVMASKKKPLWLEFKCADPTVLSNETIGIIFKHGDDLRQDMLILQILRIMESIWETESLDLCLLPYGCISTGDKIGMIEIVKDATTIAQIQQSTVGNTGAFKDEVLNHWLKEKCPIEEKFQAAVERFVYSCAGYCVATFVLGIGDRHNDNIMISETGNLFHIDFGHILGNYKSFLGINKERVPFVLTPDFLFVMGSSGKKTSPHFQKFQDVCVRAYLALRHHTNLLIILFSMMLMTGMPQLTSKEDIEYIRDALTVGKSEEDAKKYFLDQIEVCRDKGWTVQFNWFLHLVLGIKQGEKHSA
smiles,measurement,setting,value
Cc1nc(NC(=O)[C@@H](N)C(C)C)sc1-c1cnc(Cl)c(NS(=O)(=O)c2ccccc2)c1 [PI3KD-IN-015],KinomeScan PKN2,[1],100
same,KinomeScan YSK1,[2],100
same,EC50,[3],> 3 µM
same,KinomeScan RPS6KA4(Kin.Dom.1-N-terminal),[4],86
same,KinomeScan RIOK1,[5],94
same,KinomeScan PFTK1,[6],100
same,KinomeScan CSNK1D,[7],79
same,KinomeScan PDGFRB,[8],98
same,KinomeScan LRRK2(G2019S),[9],100
same,KinomeScan MTOR,[10],28
same,KinomeScan ACVR2A,[11],100
same,KinomeScan DDR2,[12],96
same,KinomeScan QSK,[13],94
same,KinomeScan FLT3(N841I),[14],87
same,GI50,"[15]; AML1, patient primary cell AML1",1.83 µM
same,GI50,"[15]; AML3, patient primary cell AML3",9.2 µM
same,GI50,[15]; most of AML patient cells,< 10 µM
same,GI50,[15]; patient primary cell AML2,0.85 µM
same,GI50,[15]; patient primary cell AML4,2.8 µM
same,GI50,[15]; patient primary cell AML5,6.3 µM
same,GI50,[15]; patient primary cell AML6,> 10 µM
same,KinomeScan STK16,[16],91
same,KinomeScan AURKB,[17],100
same,GI50,[18],1 to 10 µM
same,KinomeScan JNK2,[19],100
same,KinomeScan CSF1R,[20],67
same,KinomeScan RSK2(Kin.Dom.2-C-terminal),[21],100
same,KinomeScan ROCK1,[22],100
same,KinomeScan ABL1-phosphorylated,[23],85
same,KinomeScan YANK1,[24],100
same,KinomeScan CDC2L2,[25],100
same,KinomeScan CAMK1,[26],98
same,KinomeScan PLK3,[27],76
same,KinomeScan JAK1(JH1domain-catalytic),[28],92
same,KinomeScan ZAP70,[29],96
same,phosphorylation of Akt substrates PRAS40 GSK3b and FOXO1,[30],decreased phosphorylation
same,NF-kB P65 phosphorylation,[31],not inhibited
same,4EBP1 phosphorylation,[32],not changed at all
same,KinomeScan MST1,[33],83
same,KinomeScan DYRK2,[34],100
